What all share (format): cell-based
The test system of one experiment is HCT116 cells. The experiment can be described thus: 2-Deoxy-Glucose (2-DG) uptake assay in HCT116 cells. To be noted: Homo sapiens, HCT-116, 0.5 h, 1 mM 2-DG, 30 min, read-out: IC50 determined for the inhibition of 2-DG uptake in HCT116 cells. On the procedure:
The 2-DG uptake assay was carried out as described by Yamamoto N. et al. with slight modifications ([…]). Briefly, 40,000 HCT116 or CHO cells were seeded in black, clear bottom 96-well plates and allowed to attach overnight. Cells were incubated with compounds or DMSO and 1 mM 2-DG in glucose-free KRB buffer (20 mM HEPES, 5 mM KH2PO4, 1 mM MgSO4, 1 mM CaCl2), 136 mM NaCl, 0.1% BSA, pH 7.4) for 30 min. In the case of GLUT-4 transfected cells, Insulin (100 μg/mL) was added to the buffer. Cells were then washed and lysed in 0.06 M HCl and 1% CHAPS for 15 min at 65° C. while shaking. The amount of 2-DG in the lysate was determined by means of enzyme-coupled assay. For this 6.4 U/mL glucose-6-phosphate dehydrogenase, 0.2 U/mL diaphorase, 0.1 mM NADP^+ and 0.025 mg/mL resazurin were added to the lysates. Resorufin fluorescence was determined as a measure of 2-DG uptake at ex/em 535/590 nm with a Tecan Infinite M200 plate reader (Tecan). Blank values were subtracted from all readings and values were normalized to the DMSO control.

A further experiment addresses T1, GLUT1 (Homo sapiens, UniProt P11166).
T1 construct: host or cells: DLD-1 (DLD1) cells
T1 sequence (P11166 1-492): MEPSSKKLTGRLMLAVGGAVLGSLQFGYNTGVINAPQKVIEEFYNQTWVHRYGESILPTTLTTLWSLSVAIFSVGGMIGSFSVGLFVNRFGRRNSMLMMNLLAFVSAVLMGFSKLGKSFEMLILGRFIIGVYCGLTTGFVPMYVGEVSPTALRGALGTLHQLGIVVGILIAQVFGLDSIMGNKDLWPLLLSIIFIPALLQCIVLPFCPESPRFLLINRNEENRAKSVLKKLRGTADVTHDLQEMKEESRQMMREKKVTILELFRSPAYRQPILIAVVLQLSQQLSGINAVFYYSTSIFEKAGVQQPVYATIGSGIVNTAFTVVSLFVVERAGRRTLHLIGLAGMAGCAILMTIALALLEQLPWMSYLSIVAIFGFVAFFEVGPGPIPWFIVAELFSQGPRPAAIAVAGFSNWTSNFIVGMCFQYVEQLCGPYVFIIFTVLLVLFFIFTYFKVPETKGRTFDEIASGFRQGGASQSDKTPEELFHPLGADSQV
The experiment can be described thus: GLUT1 transporter activity assay (2-DG uptake) in DLD1 cells. Conditions: DLD1 cell line; read-out: GLUT1 inhibitory activity (IC50). The procedure, abridged: (§1)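 DLD1 cells (GLUT1) or DLD-1-GLUT1−/− cells (GLUT3) in glucose-free RPMI with 1% FCS, treated with compound plus 1 mM 2-DG for 30 min. Lysate 2-DG measured by G6PDH/diaphorase-coupled resazurin-to-resorufin fluorescence (ex/em 535/590 nm), blank-subtracted and normalized to DMSO control.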

The next experiment addresses T2, GLUT3 (Homo sapiens, UniProt P11169).
T2 construct: host or cells: DLD-1-GLUT1(-/-) cells
T2 sequence (P11169 1-496): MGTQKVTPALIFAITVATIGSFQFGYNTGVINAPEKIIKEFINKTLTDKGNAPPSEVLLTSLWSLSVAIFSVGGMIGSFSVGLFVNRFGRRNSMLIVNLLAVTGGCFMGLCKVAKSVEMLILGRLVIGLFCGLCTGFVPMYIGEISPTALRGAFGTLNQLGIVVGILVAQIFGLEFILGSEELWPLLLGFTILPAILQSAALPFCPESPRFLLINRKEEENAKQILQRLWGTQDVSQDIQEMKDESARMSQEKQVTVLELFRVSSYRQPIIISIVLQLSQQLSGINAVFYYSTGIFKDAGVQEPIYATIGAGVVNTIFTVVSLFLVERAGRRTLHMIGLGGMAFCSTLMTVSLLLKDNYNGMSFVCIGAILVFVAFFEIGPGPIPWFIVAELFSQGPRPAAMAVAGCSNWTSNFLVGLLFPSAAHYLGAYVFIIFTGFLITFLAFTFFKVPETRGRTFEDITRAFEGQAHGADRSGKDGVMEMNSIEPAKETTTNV
Put plainly: GLUT3 transporter activity assay (2-DG uptake) in DLD-1-GLUT1-/- cells. To be noted: DLD-1-GLUT1-/- cell line; read-out: GLUT3 inhibitory activity (IC50). The procedure, abridged: as §1

Another experiment concerns the target T3, GLUT4 (Homo sapiens, UniProt P14672).
T3 sequence (P14672 1-509): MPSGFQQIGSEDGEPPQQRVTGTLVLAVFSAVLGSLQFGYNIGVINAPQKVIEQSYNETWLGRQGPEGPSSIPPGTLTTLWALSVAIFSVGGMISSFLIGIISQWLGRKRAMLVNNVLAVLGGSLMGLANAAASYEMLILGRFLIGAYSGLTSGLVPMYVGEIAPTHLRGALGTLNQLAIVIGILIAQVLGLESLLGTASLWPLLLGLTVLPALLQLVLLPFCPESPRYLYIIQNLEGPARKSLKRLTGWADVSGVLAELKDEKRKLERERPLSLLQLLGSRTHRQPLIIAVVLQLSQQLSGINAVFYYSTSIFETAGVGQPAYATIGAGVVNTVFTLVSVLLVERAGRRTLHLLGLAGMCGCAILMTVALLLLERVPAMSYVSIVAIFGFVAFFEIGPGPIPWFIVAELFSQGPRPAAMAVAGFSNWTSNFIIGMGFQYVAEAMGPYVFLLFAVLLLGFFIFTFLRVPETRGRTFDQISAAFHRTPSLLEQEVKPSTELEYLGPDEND
The experiment can be described thus: GLUT4 transporter activity assay (2-DG uptake) in CHO-hGLUT4 cells. To be noted: CHO-hGLUT4 cell line; read-out: GLUT4 inhibitory activity (IC50). The procedure, abridged: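 Stable CHOK1 clone overexpressing human GLUT4 (7,000 cells/well), in glucose-free RPMI with 1% FCS, incubated with compound and 1 mM 2-DG for 30 min. After acid/CHAPS lysis at 65 °C, 2-DG quantified by G6PDH/diaphorase-coupled resazurin-to-resorufin fluorescence (ex/em 535/590 nm). Blank-subtracted, normalised to DMSO.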

IC50 data for 2 compounds are collected here from patent publication US20210198269A1, “INHIBITORS OF GLUCOSE TRANSPORTERS (GLUTs)” (LEAD DISCOVERY CENTER GMBH, priority 2018, published 2021).

As a reminder, the IC50 is the concentration at which inhibition is half-maximal. In the case of `Cc1ccc(CCNC(=O)c2cccc(N3C(=O)NC4CC3(C)Oc3c(OCc5ccc(C#N)cc5)cccc34)c2)cc1` (centres unmarked) [Compound A05, 3-(10-((4-Cyanobenzyl)oxy)-2-methyl-4-oxo-5,6-dihydro-2H-2,6-methanobenzo[g][1,3,5]oxadiazocin-3(4H)-yl)-N-(4-methylphenethyl)benzamide], the IC50 in the experiment with HCT116 cells was no more than 5 µM; on GLUT1, no more than 300 nM; at GLUT3, no more than 300 nM; on GLUT4, 4 to 10 µM.

As to `Cc1ccc(CCNC(=O)c2cccc(N3C(=O)NC4CC3(C)Oc3c(OCc5ccco5)cccc34)c2)cc1` (centres unmarked) [Compound A07, 3-(10-(Furan-2-ylmethoxy)-2-methyl-4-oxo-5,6-dihydro-2H-2,6-methanobenzo[g][1,3,5]oxadiazocin-3(4H)-yl)-N-(4-methylphenethyl)benzamide], the IC50 in the experiment on HCT116 cells was no more than 5 µM; at GLUT1, 300 to 1000 nM; at GLUT3 it was 300 to 1000 nM; on GLUT4, 4 to 10 µM.
